Where a SMILES comes first, the peptide text is derived from it. [ ]: non-standard residue; d: D form. ξ: configuration not given here. ξGly(dodecyl) = CCCCCCCCCCCCC(N)C(=O)O; ξGly(decyl) = CCCCCCCCCCC(N)C(=O)O; ξGly(octyl) = CCCCCCCCC(N)C(=O)O; ξAoc(2) = CCCCCCC(N)C(=O)O
Experiments:
[1] = Stability in human Caco-2 homogenates after 2 hrs; type: ADME; conditions: Caco-2 cell homogenates, read-out: Stability
[2] = Apparent permeability across human Caco-2 cells; type: ADME, cell-based
[3] = Stability in human Caco-2 homogenates after 1 hr; type: ADME; conditions: Caco-2 cell homogenates, read-out: Stability
Caco-2 [4] = test: Stability in human Caco-2 homogenates after 20 mins; type: ADME; conditions: caco-2, 20 min
Caco-2 [5] = test: Stability in human Caco-2 homogenates after 10 mins; type: ADME; conditions: caco-2, 10 min

Row | Structure (SMILES) | remaining at 2 h [1] [%] | Papp [2] [×10⁻⁶ cm/s] | remaining at 1 h [3] [%] | Activity (Caco-2 [4]) | Stability (Caco-2 [5]) [%]
1 | NC(=O)[C@H](Cc1c[nH]c2ccccc12)NC(=O)[C@@H](N)CCC(=O)O (H-Glu-Trp-NH2) | 35 | 7.76 |  |  | 
2 | CCCCCCC(N)C(=O)NC(CCCCCC)C(=O)N[C@@H](CCC(=O)O)C(=O)N[C@@H](Cc1c[nH]c2ccccc12)C(N)=O (some centres not stated) (H-[ξAoc(2)][ξAoc(2)]EW-NH2) | 90 | 8.32 |  | Not Active | 
3 | CCCCCCCCC(N)C(=O)NC(CCCCCCCC)C(=O)N[C@@H](CCC(=O)O)C(=O)N[C@@H](Cc1c[nH]c2ccccc12)C(N)=O (some centres not stated) (H-[ξGly(octyl)][ξGly(octyl)]EW-NH2) | 40 | 1.79 |  | Not Active | 15
4 | CCCCCCCCCCC(N)C(=O)NC(CCCCCCCCCC)C(=O)N[C@@H](CCC(=O)O)C(=O)N[C@@H](Cc1c[nH]c2ccccc12)C(N)=O (some centres not stated) (H-[ξGly(decyl)][ξGly(decyl)]EW-NH2) | 90 | 3.09 |  | Not Active | 
5 | CCCCCCC(N)C(=O)N[C@@H](CCC(=O)O)C(=O)N[C@@H](Cc1c[nH]c2ccccc12)C(N)=O (stereo partly drawn) (H-[ξAoc(2)]-Glu-Trp-NH2) | 40 | 4.84 |  |  | 
6 | CCCCCCCCCCCCC(N)C(=O)NC(CCCCCCCCCCCC)C(=O)N[C@@H](CCC(=O)O)C(=O)N[C@@H](Cc1c[nH]c2ccccc12)C(N)=O (some centres not stated) (H-[ξGly(dodecyl)][ξGly(dodecyl)]EW-NH2) | 90 | 2.77 |  | Not Active | 
7 | CCCCCCCCCCCCC(N)C(=O)N[C@@H](CCC(=O)O)C(=O)N[C@@H](Cc1c[nH]c2ccccc12)C(N)=O (some centres not stated) | 65 | 1.02 | 75 |  | 

The remaining lines, values ahead:

Row | remaining at 2 h [1] [%] | Papp [2] [×10⁻⁶ cm/s] | remaining at 1 h [3] [%] | Activity (Caco-2 [4]) | Stability (Caco-2 [5]) [%] | Structure (SMILES)
8 | 65 | 9.26 | 75 |  |  | CCCCCCCCCCC(N)C(=O)N[C@@H](CCC(=O)O)C(=O)N[C@@H](Cc1c[nH]c2ccccc12)C(N)=O (some centres not stated)
9 | 40 | 3.83 |  |  |  | CCCCCCC(NC(=O)[C@@H](N)CCC(=O)O)C(=O)N[C@@H](Cc1c[nH]c2ccccc12)C(N)=O (some centres not stated) (H-Glu-[ξAoc(2)]-Trp-NH2)
10 | 40 | 3.99 |  |  | 15 | CCCCCCCCC(NC(=O)[C@@H](N)CCC(=O)O)C(=O)N[C@@H](Cc1c[nH]c2ccccc12)C(N)=O (some centres not stated)
11 | 40 | 1.55 |  |  |  | CCCCCCCCC(N)C(=O)N[C@@H](CCC(=O)O)C(=O)N[C@@H](Cc1c[nH]c2ccccc12)C(N)=O (some centres not stated)
12 | 40 | 4.66 |  |  |  | CCCCCCCCCCC(NC(=O)[C@@H](N)CCC(=O)O)C(=O)N[C@@H](Cc1c[nH]c2ccccc12)C(N)=O (some centres not stated)

Reference: ChEMBL document CHEMBL1140474, “Enhancement of oral drug absorption-effect of lipid conjugation on the enzymatic stability and intestinal permeability of l-Glu-l-Trp-NH(2)” (Bioorg Med Chem, 2007)
